Tests used:
HeLa cells [1] = test: PDT phototoxicity in HeLa cells grown on collagen substrates, SHG excitation at 818 nm (detached and PI positive cells counted); type: cell-based
Protocol: To verify the efficiency of the different nonlinear-optical conversion mechanisms for PDT excitation, cell cultured samples were used in different lay-outs permitting separation of the relative contribution of one specific nonlinear process. All experiments were made in a Petri dish through the bottom optical glass window in an inverted microscopy configuration. When cells were grown directly on the optical glass window, the pump and Stokes waves were synchronized with a zero delay and the beams were focused into the cell culture treated with the photosensitizer, CARS/FWM signals were generated by the natural intercellular biomolecules of proteins or lipids. In this case, the CARS/FWM conversion was also supplemented by the TPA process directly in the photosensitizer and a combination of CARS/FWM/TPA was obtained (see diagram 1 in FIG. 3a). To separate the TPA contribution, a pulse delay of ˜5 ps between the pump and the Stokes waves was introduced which disabled the CARS/FWM process. Therefore, with the pulse delay t, TPA of photosensitizer produced the dominant PDT effect (see diagram 2 in FIG. 3a). We used another lay-out in which cells were grown on a thin layer of polymerized collagen gel (ordered collagen structures). When the pump and Stokes laser beams were focused in collagen and had zero delay, SHG/FWM/SFG (sum frequency generation) nonlinear interactions occurred in the collagen layer (see diagram 3 in FIG. 3a). To selectively look at the SHG contribution, a pulse delay was introduced which disabled the FWM and SFG processes. The second harmonic signal generated by the collagen structure propagated to reach the cells treated with the photosensitizer, and efficiently absorbed by it to excite PDT (see diagram 4 in FIG. 3a). The dose of laser radiation delivered to the sample was estimated to be ˜60 J/cm^2 at 812.6 or 818.8 nm; ˜30 J/cm^2 at 1064 nm per scan, for CARS/FWM in proteins/lipids cellular environmental medium; and ˜60 J/cm^2 for SHG in polymerized collagen gels.
Cell culture, drug treatment and PDT design. The process of PDT was modeled on the cultured HeLa cells. FIG. 3b diagrammatically illustrates the PDT procedure. HeLa cells were grown in Advanced DMEM (Life Technologies), supplemented with 2.5% fetal calf serum (FBS) (Sigma, St. Louis, Mo.), 1% glutamax (Life Technologies), 1% Antibiotic Antimycotic Solution (Sigma) at 37° C. in a humidified atmosphere containing 5% CO2. Prior to the incorporation of the photosensitizer and PDT experiments, cells were placed into glass-bottom dishes (MatTek, Ashland, Mass.). In the experiments involving SHG, the glass-bottom dishes were coated either with monomeric collagen (Sigma) or with collagen gels polymerized on the glass window. A stock solution of Chlorin-e6 was prepared in DMSO. The PDT process in the cultured cells was initiated by nonlinear optical excitation of the Chlorin-e6 photosensitizer, which was diluted to a final concentration of 90 μM in Advanced DMEM containing 15% FBS and 0.005% Tween 80. Cells were incubated with the drug for ninety minutes, thoroughly washed to remove unincorporated drug and subsequently used for optical exposure for PDT treatment.
During the laser irradiation, cells were maintained at 37° C. and 5% CO2 in a Live-Cell incubator (Pathology Devices, Westminster, Md.) mounted on the microscope stage. Following the laser irradiation, the cells were incubated for 4 hours in a fresh regular medium at 37° C. […]

HeLa cells [2] = test: PDT phototoxicity in cultured HeLa cells, CARS/FWM/TPA vs TPA excitation (calcein AM / propidium iodide staining); type: cell-based; conditions: 90 μM, 90 min incubation, average of four series
Description: Materials and Methods. Optical setup. The experimental setup used for the present nonlinear optical excitation of PDT utilized a custom made laser scanning microscopy system with two excitation NIR laser sources. A picosecond Nd:YVO4 laser (picoTRAIN IC-10000/532-4000, HighQ Laser) with pulse width ˜5 ps and a repetition rate of 76 MHz was used as the source for the Stokes wave ωs at the fundamental output of 1064 nm as well as for synchronous pumping of a tunable optical parametric oscillator (OPO, Levante Emerald, APE) by using its 532 second harmonic output with a pulse width of ˜4 ps. […] When the beating frequency ωp-ωs is tuned to be resonant with a vibrational mode of a selected molecular bond, the CARS signal together with its nonresonant electronic FWM background signal is detected at the anti-Stokes frequency of ωas=2ωp−ωs. Using our instrument setup, a sample can be excited and the imaged in the CARS/FWM mode in the vibrational frequency range of 900-3300 cm^−1 and simultaneously at 670-990 nm in the TPEF (two-photon excited fluorescence) or/and in the SHG mode. […] Thus, this experimental setup enables concurrent operation of the system in the PDT excitation mode as well as in the imaging mode (CARS/FWM/fluorescence) which is highly suitable for PDT process monitoring. […]

## C=Cc1c(C)c2cc3nc(c(CC(=O)O)c4[nH]c(cc5nc(cc1[nH]2)C(C)=C5CC)c(C)c4C(=O)O)[C@@H](CCC(=O)O)[C@@H]3C [Chlorin e6]
HeLa cells [1]; 50 scans, 818 nm, 3000 J/cm^2
  difference in phototoxicity between polymerized and monomeric collagen groups: tenfold
HeLa cells [1]; cells on fibrillar (polymerized) collagen, 50 scans by 818 nm pulsed laser, 3000 J/cm^2, 90 μM
  detachment from the substrate, or positive PI staining of cells: up to 50%
HeLa cells [1]; cells on fibrillar collagen substrates, 75 scans, 818 nm, ~4500/cm^2, 90 μM
  detached and PI positive cells: ~70%
HeLa cells [1]; cells on monomeric collagen, 50 scans by 818 nm pulsed laser, 3000 J/cm^2, 90 μM
  cytotoxicity, by counting of the detached and PI positive cells: less than 5%
HeLa cells [1]; cells on monomeric collagen, 75 scans, 818 nm, ~4500/cm^2, 90 μM
  cells either detached or displayed PI stain: ~35%
HeLa cells [2]; CARS/FWM/TPA mode (zero pulse delay), 818 nm pump + 1064 nm Stokes, 70 scans, ~6300 J/cm^2
  necrotic cells (PI positive cells): 40%
HeLa cells [2]; TPA mode (delayed pulses), same number of scans (70)
  necrotic cells (PI positive cells): 20%
